ChEMBL document CHEMBL1135856, “Identification of unique VLA-4 antagonists from a combinatorial library” (Bioorg Med Chem Lett, 2002)

biological target: Integrin alpha-4/beta-1 (Homo sapiens, UniProt P05556+P13612); experiment: Inhibition of [125I]VCAM-Ig binding to Alpha-4 beta-1 (VLA-4) of Jurkat cells; assay type: cell-based
Sequence (P05556 whole entry): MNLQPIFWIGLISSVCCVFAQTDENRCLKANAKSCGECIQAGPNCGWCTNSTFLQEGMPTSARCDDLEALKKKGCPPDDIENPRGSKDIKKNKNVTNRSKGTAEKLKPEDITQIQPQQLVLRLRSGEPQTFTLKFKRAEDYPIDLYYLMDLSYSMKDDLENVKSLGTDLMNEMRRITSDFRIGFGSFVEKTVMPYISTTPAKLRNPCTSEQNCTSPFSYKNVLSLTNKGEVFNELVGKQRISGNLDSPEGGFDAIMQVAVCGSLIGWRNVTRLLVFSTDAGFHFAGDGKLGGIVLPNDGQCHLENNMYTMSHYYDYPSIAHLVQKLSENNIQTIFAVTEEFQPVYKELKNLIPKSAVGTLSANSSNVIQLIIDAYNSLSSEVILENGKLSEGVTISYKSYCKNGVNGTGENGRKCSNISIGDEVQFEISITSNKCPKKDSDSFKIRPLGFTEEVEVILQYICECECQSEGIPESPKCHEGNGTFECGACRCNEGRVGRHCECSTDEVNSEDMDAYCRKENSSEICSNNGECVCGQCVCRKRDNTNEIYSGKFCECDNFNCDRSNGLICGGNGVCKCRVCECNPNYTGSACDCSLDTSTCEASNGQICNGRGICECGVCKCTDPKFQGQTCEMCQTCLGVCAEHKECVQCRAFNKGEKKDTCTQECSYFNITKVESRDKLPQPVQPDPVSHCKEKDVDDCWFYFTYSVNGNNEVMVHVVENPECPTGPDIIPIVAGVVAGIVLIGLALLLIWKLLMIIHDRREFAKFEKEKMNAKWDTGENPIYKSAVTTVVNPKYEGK
Sequence (P13612 whole entry): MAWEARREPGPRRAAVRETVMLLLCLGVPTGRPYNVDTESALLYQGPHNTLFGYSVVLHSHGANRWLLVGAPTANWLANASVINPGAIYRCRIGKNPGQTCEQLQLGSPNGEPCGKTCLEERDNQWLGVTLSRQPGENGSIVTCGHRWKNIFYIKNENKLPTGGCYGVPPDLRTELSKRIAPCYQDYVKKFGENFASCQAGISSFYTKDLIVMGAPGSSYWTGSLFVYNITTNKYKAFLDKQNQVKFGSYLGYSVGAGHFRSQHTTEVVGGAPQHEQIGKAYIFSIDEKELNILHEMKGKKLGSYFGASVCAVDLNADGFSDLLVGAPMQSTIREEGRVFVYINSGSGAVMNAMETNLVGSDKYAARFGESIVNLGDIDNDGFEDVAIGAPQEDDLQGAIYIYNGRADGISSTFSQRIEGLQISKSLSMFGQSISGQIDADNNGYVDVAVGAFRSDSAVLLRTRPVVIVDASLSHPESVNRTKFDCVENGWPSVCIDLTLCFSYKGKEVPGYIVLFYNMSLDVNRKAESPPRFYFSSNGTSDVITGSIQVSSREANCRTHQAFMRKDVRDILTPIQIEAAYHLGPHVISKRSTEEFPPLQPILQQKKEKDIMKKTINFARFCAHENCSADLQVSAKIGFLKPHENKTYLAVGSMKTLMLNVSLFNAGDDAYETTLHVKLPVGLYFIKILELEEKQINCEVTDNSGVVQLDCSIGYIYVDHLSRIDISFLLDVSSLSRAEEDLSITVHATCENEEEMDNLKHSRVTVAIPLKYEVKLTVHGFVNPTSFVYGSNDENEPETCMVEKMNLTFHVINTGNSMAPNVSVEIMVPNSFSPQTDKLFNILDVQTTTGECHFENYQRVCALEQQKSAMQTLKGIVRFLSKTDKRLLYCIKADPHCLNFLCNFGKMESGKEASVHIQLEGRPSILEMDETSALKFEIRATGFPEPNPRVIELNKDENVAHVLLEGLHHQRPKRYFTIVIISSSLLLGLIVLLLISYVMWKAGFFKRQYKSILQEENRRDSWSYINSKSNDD

Row | IC50 [nM] | Compound
1 | 3.2 | Cc1ccccc1NC(=O)Nc1ccc(CC(=O)N(CC(=O)NC(CC(=O)O)c2ccccc2)C2CCCCC2)cc1 (centres undefined)
2 | 3.6 | O=C(N[C@@H](Cc1ccc(-c2ccccc2)cc1)C(=O)O)c1ccc(CNS(=O)(=O)c2cc(Cl)cc(Cl)c2)cc1
3 | 8.1 | Cc1ccccc1NC(=O)Nc1ccc(CC(=O)C2CCC(C(=O)N[C@@H](Cc3ccccc3)C(=O)O)(c3ccccc3)CC2)cc1 (some centres undefined)
4 | 0.53 | CCCC[C@H](NC(=O)[C@@H]1Cc2ccccc2CN1S(=O)(=O)c1ccc(OC)c(OC)c1)C(=O)O
